Experimental data: article PMC9856672, “SGC-CAMKK2-1: A Chemical Probe for CAMKK2” (Cells, 2023)

Columns and labels:
[1] = target: T1, EGFR(L747-S752del, P753S) (Homo sapiens, UniProt P00533, DEL747-752/P753S); test: KINOMEscan 1 μM, EGFR(L747-S752del, P753S); format: binding; conditions: 1000 nM; Entrez EGFR; read-out: Percent Control
T1 construct: purchased Eurofins DiscoverX KINOMEscan
Text: (§1) Supplement cells-12-00287-s001.zip/File S2. KinomeScan data for the CAMKK2 probe and negative control.xlsx, sheet "SGC-CAMKK2-1" | column: Percent Control

[2] = target: T2, LKB1 (Homo sapiens, UniProt Q15831); test: KINOMEscan 1 μM, LKB1; format: binding; conditions: 1000 nM; Entrez STK11; read-out: Percent Control
T2 construct: purchased Eurofins DiscoverX KINOMEscan
Text: as §1

[3] = target: T3, MTOR (Homo sapiens, UniProt P42345); test: KINOMEscan 1 μM, MTOR; format: binding; conditions: 1000 nM; Entrez MTOR; read-out: Percent Control
T3 construct: purchased Eurofins DiscoverX KINOMEscan
Text: as §1

[4] = target: T4, AURKC (Homo sapiens, UniProt Q9UQB9); test: KINOMEscan 1 μM, AURKC; format: binding; conditions: 1000 nM; Entrez AURKC; read-out: Percent Control
T4 construct: purchased Eurofins DiscoverX KINOMEscan
Text: as §1

[5] = target: T5, ABL1(F317I)-nonphosphorylated (Homo sapiens, UniProt P00519, F317I); test: KINOMEscan 1 μM, ABL1(F317I)-nonphosphorylated; format: binding; conditions: 1000 nM; Entrez ABL1; read-out: Percent Control
T5 construct: purchased Eurofins DiscoverX KINOMEscan
Text: as §1

[6] = target: T6, ACVR1B (Homo sapiens, UniProt P36896); test: KINOMEscan 1 μM, ACVR1B; format: binding; conditions: 1000 nM; Entrez ACVR1B; read-out: Percent Control
T6 construct: purchased Eurofins DiscoverX KINOMEscan
Text: as §1

[7] = target: T7, DRAK1 (Homo sapiens, UniProt Q9UEE5); test: KINOMEscan 1 μM, DRAK1; format: binding; conditions: 1000 nM; Entrez STK17A; read-out: Percent Control
T7 construct: purchased Eurofins DiscoverX KINOMEscan
Text: as §1

[8] = target: T8, HIPK4 (Homo sapiens, UniProt Q8NE63); test: KINOMEscan 1 μM, HIPK4; format: binding; conditions: 1000 nM; Entrez HIPK4; read-out: Percent Control
T8 construct: purchased Eurofins DiscoverX KINOMEscan
Text: as §1

[9] = target: T9, MEK6 (Homo sapiens, UniProt P52564); test: KINOMEscan 1 μM, MEK6; format: binding; conditions: 1000 nM; Entrez MAP2K6; read-out: Percent Control
T9 construct: purchased Eurofins DiscoverX KINOMEscan
Text: as §1

[10] = target: T10, MRCKA (Homo sapiens, UniProt Q5VT25); test: KINOMEscan 1 μM, MRCKA; format: binding; conditions: 1000 nM; Entrez CDC42BPA; read-out: Percent Control
T10 construct: purchased Eurofins DiscoverX KINOMEscan
Text: as §1

[11] = target: T11, PFTAIRE2 (Homo sapiens, UniProt Q96Q40); test: DiscoverX KINOMEscan binding assay at 1 μM, PFTAIRE2; conditions: PFTAIRE2 (CDK15); Compound Concentration 1000 nM; read-out: Percent Control
T11 construct: purchased Eurofins DiscoverX KINOMEscan
Text: as §1

[12] = target: T12, PRKD1 (Homo sapiens, UniProt Q15139); test: DiscoverX KINOMEscan binding assay at 1 μM, PRKD1; conditions: Compound Concentration 1000 nM, read-out: Percent Control
T12 construct: purchased Eurofins DiscoverX KINOMEscan
Text: as §1

[13] = target: T13, PRKD2 (Homo sapiens, UniProt Q9BZL6); test: DiscoverX KINOMEscan binding assay at 1 μM, PRKD2; conditions: Compound Concentration 1000 nM, read-out: Percent Control
T13 construct: purchased Eurofins DiscoverX KINOMEscan
Text: as §1

[14] = target: T14, RPS6KA5(Kin.Dom.2-C-terminal) (Homo sapiens, UniProt O75582); test: DiscoverX KINOMEscan binding assay at 1 μM, RPS6KA5(Kin.Dom.2-C-terminal); conditions: Compound Concentration 1000 nM, read-out: Percent Control
T14 construct: RPS6KA5(Kin.Dom.2-C-terminal); purchased Eurofins DiscoverX KINOMEscan
Text: as §1

[15] = target: T15, VEGFR2 (Homo sapiens, UniProt P35968); test: DiscoverX KINOMEscan binding assay at 1 μM, VEGFR2; conditions: VEGFR2 (KDR); Compound Concentration 1000 nM; read-out: Percent Control
T15 construct: purchased Eurofins DiscoverX KINOMEscan
Text: as §1

[16] = target: T16, PAK1 (Homo sapiens, UniProt Q13153); test: KINOMEscan at 1 μM, PAK1; format: binding; conditions: 1000 nM, read-out: Percent Control
T16 construct: purchased Eurofins DiscoverX KINOMEscan
Text: (§2) Supplement cells-12-00287-s001.zip/File S2. KinomeScan data for the CAMKK2 probe and negative control.xlsx, sheet "SGC-CAMKK2-1N" | column: Percent Control

[17] = target: T17, ABL1(Y253F)-phosphorylated (Homo sapiens, UniProt P00519, Y253F); test: KINOMEscan at 1 μM, ABL1(Y253F)-phosphorylated; format: binding; conditions: 1000 nM, read-out: Percent Control
T17 construct: purchased Eurofins DiscoverX KINOMEscan
Text: as §2

[18] = target: T18, SgK110 (Homo sapiens, UniProt P0C264); test: KINOMEscan at 1 μM, SgK110; format: binding; conditions: 1000 nM, read-out: Percent Control
T18 construct: purchased Eurofins DiscoverX KINOMEscan
Text: as §2

[19] = target: T19, AURKA (Homo sapiens, UniProt O14965); test: KINOMEscan at 1 μM, AURKA; format: binding; conditions: 1000 nM, read-out: Percent Control
T19 construct: purchased Eurofins DiscoverX KINOMEscan
Text: as §2

[20] = target: T11, PFTAIRE2; test: KINOMEscan at 1 μM, PFTAIRE2; format: binding; conditions: 1000 nM, read-out: Percent Control
Text: as §2

[21] = target: T20, SRPK2 (Homo sapiens, UniProt P78362); test: KINOMEscan at 1 μM, SRPK2; format: binding; conditions: 1000 nM, read-out: Percent Control
T20 construct: purchased Eurofins DiscoverX KINOMEscan
Text: as §2

[22] = target: T21, CASK (Homo sapiens, UniProt O14936); test: KINOMEscan at 1 μM, CASK; format: binding; conditions: 1000 nM, read-out: Percent Control
T21 construct: purchased Eurofins DiscoverX KINOMEscan
Text: as §2

[23] = target: T22, JAK1(JH1domain-catalytic) (Homo sapiens, UniProt P23458); test: KINOMEscan at 1 μM, JAK1(JH1domain-catalytic); format: binding; conditions: 1000 nM, read-out: Percent Control
T22 construct: JAK1(JH1domain-catalytic); purchased Eurofins DiscoverX KINOMEscan
Text: as §2

[24] = target: T23, MAK (Homo sapiens, UniProt P20794); test: KINOMEscan at 1 μM, MAK; format: binding; conditions: 1000 nM, read-out: Percent Control
T23 construct: purchased Eurofins DiscoverX KINOMEscan
Text: as §2

[25] = target: T24, ZAP70 (Homo sapiens, UniProt P43403); test: KINOMEscan at 1 μM, ZAP70; format: binding; conditions: 1000 nM, read-out: Percent Control
T24 construct: purchased Eurofins DiscoverX KINOMEscan
Text: as §2

[26] = target: T25, KIT(A829P) (Homo sapiens, UniProt P10721, A829P); test: KINOMEscan at 1 μM, KIT(A829P); format: binding; conditions: 1000 nM, read-out: Percent Control
T25 construct: purchased Eurofins DiscoverX KINOMEscan
Text: as §2

[27] = target: T26, PIK3CA(I800L) (Homo sapiens, UniProt P42336, I800L); test: KINOMEscan at 1 μM, PIK3CA(I800L); format: binding; conditions: 1000 nM, read-out: Percent Control
T26 construct: purchased Eurofins DiscoverX KINOMEscan
Text: as §2

[28] = target: T27, FES (Homo sapiens, UniProt P07332); test: KINOMEscan at 1 μM, FES; format: binding; conditions: 1000 nM, read-out: Percent Control
T27 construct: purchased Eurofins DiscoverX KINOMEscan
Text: as §2

[29] = target: T28, LRRK2(G2019S) (Homo sapiens, UniProt Q5S007, G2019S); test: KINOMEscan at 1 μM, LRRK2(G2019S); format: binding; conditions: 1000 nM, read-out: Percent Control
T28 construct: purchased Eurofins DiscoverX KINOMEscan
Text: as §2

[30] = target: T29, CDK5 (Homo sapiens, UniProt Q00535); test: KINOMEscan at 1 μM, CDK5; format: binding; conditions: 1000 nM, read-out: Percent Control
T29 construct: purchased Eurofins DiscoverX KINOMEscan
Text: as §2

[31] = target: T30, EGFR(L861Q) (Homo sapiens, UniProt P00533, L861Q); test: KINOMEscan binding assay at 1 μM, EGFR(L861Q); conditions: Compound Concentration 1000 nM; read-out: Percent Control
T30 construct: purchased Eurofins DiscoverX KINOMEscan
Text: as §2

[32] = target: T31, RPS6KA4(Kin.Dom.1-N-terminal) (Homo sapiens, UniProt O75676); test: KINOMEscan binding assay at 1 μM, RPS6KA4(Kin.Dom.1-N-terminal); conditions: Compound Concentration 1000 nM; read-out: Percent Control
T31 construct: RPS6KA4(Kin.Dom.1-N-terminal); purchased Eurofins DiscoverX KINOMEscan
Text: as §2

T11 sequence (Q96Q40 whole entry): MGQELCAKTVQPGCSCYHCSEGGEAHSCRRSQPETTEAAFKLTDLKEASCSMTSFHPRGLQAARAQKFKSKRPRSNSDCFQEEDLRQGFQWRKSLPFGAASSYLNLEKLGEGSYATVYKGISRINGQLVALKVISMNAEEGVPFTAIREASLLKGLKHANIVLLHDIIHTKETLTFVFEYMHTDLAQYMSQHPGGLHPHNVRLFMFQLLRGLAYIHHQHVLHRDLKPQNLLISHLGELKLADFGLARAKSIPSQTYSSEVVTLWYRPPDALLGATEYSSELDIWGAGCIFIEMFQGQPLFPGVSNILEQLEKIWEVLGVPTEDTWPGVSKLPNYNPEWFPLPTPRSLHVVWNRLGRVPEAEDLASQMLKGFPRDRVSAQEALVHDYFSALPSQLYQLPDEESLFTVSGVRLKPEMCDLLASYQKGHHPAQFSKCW
T25 sequence (P10721 26-976 A829P): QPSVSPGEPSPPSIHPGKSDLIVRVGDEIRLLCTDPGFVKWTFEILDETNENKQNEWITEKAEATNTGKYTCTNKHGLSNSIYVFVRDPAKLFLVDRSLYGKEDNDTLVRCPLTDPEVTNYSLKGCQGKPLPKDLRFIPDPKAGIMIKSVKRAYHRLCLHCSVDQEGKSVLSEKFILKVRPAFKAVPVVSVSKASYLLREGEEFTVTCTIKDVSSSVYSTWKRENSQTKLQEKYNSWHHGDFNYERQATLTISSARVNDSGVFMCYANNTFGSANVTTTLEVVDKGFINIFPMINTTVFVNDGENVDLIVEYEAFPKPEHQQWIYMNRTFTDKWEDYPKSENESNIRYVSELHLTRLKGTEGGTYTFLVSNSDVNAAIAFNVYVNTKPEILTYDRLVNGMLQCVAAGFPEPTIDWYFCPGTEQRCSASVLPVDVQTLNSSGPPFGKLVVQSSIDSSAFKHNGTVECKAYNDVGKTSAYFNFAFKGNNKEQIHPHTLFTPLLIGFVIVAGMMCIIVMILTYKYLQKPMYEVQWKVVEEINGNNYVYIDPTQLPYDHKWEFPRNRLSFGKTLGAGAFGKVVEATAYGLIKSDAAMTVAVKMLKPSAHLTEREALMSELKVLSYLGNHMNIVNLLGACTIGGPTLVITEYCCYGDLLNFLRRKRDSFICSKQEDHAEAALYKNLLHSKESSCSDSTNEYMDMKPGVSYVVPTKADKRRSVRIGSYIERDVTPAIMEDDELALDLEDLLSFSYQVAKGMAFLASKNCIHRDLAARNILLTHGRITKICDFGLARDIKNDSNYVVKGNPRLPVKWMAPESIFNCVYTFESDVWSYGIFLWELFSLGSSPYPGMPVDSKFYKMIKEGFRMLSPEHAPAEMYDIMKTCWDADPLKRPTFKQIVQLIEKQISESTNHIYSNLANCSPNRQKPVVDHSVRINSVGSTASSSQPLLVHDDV
T21 sequence (O14936 whole entry): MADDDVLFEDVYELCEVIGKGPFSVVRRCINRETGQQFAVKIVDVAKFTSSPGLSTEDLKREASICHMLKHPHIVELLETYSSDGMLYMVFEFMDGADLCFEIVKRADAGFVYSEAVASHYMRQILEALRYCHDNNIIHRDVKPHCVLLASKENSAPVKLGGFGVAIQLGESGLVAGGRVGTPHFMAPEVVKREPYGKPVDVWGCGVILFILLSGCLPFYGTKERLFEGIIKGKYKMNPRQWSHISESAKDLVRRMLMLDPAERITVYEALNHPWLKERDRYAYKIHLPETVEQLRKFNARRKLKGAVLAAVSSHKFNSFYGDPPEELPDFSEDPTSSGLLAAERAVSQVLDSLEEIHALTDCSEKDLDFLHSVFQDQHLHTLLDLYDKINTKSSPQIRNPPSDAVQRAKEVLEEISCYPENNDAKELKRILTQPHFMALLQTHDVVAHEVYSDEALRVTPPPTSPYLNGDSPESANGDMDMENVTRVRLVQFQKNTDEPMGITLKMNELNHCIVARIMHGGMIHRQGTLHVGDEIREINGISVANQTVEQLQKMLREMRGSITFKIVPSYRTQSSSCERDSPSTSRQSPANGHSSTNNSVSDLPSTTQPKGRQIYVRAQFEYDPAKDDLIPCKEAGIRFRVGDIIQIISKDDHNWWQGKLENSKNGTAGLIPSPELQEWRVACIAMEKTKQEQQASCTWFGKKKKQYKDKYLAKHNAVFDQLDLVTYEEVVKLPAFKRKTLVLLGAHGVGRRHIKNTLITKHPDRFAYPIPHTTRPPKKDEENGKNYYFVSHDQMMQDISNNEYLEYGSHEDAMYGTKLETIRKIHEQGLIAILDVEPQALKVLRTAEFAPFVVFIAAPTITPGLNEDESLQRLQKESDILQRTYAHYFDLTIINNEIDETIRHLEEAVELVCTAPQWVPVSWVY
T20 sequence (P78362 whole entry): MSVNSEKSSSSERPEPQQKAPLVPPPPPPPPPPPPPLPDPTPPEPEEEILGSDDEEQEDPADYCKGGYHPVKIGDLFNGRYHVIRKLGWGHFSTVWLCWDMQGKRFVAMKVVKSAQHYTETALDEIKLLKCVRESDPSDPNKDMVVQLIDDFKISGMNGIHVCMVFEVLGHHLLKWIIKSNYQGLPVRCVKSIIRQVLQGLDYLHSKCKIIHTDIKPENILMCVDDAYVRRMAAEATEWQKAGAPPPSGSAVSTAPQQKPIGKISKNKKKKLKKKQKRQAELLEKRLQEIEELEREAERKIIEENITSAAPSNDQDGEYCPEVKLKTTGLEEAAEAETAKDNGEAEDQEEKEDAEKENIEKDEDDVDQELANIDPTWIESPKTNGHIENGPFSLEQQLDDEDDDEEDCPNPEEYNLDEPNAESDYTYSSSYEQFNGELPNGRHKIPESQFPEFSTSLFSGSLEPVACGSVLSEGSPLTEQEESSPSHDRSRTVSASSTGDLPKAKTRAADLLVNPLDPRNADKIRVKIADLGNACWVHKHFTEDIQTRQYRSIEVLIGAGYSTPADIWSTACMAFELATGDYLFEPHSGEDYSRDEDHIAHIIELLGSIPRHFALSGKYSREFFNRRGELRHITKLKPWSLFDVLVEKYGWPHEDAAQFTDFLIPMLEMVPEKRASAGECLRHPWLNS
T2 sequence (Q15831 whole entry): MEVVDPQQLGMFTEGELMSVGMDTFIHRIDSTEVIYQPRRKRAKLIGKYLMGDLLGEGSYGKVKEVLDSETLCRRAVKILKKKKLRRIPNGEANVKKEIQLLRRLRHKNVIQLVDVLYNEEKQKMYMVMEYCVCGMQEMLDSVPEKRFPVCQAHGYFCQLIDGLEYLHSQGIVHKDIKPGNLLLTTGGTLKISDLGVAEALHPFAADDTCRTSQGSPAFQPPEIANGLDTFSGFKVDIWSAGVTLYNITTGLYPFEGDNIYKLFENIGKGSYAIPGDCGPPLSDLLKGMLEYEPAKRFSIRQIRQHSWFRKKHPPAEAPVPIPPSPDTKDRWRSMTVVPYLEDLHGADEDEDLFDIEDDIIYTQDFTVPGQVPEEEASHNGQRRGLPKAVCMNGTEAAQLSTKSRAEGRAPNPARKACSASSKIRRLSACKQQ
T24 sequence (P43403 whole entry): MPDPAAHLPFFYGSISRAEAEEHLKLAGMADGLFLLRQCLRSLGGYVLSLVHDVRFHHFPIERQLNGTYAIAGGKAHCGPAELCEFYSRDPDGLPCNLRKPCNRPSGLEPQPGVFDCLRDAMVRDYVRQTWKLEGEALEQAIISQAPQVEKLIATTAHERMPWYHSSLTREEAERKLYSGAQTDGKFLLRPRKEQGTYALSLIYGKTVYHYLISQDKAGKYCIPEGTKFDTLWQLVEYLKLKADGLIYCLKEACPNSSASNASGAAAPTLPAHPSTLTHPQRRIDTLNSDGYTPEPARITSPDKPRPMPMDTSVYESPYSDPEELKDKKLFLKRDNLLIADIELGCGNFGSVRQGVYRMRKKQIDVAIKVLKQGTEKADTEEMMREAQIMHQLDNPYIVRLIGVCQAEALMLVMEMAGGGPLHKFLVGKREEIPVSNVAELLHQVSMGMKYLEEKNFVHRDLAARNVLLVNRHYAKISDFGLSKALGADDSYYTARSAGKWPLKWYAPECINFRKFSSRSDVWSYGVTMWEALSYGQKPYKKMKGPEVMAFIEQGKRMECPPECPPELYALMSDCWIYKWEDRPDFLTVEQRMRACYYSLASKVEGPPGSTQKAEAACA
T23 sequence (P20794 whole entry): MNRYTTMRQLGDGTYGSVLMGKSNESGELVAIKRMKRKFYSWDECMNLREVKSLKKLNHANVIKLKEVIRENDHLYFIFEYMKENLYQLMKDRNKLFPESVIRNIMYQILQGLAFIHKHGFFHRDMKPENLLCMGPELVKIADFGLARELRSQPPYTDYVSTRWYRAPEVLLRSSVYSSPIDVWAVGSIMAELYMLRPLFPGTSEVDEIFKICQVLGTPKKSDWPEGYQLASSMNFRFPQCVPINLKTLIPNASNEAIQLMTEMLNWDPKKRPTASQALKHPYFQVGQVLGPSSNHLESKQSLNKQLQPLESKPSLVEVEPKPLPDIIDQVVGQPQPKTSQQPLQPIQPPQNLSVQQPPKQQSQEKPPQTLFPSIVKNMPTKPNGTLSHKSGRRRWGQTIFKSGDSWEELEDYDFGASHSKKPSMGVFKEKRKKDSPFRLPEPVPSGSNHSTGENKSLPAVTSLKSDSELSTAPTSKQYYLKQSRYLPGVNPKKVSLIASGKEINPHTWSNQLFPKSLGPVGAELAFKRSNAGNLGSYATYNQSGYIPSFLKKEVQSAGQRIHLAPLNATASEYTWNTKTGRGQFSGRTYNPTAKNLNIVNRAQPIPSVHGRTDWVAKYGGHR
T1 sequence (P00533 with tags, fused parts or gaps DEL747-752/P753S limits assumed): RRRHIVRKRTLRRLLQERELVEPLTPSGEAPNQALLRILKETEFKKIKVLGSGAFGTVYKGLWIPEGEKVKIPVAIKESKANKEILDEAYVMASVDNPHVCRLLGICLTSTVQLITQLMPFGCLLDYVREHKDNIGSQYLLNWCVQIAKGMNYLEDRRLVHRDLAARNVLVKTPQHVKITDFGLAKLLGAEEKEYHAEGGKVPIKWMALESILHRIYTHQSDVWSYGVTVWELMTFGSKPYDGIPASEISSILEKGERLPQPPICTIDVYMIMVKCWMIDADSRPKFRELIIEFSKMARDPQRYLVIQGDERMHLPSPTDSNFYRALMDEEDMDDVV

Structure (SMILES): Cc1cccc(-c2cnc3occ(-c4ccc(C(=O)O)c(C5CCCC5)c4)c3c2)c1 [SGC-CAMKK2-1 (YL-36)]
- remaining binding at 1 µM [1]: 59%
- remaining binding at 1 µM [2]: 78%
- remaining binding at 1 µM [3]: 98%
- remaining binding at 1 µM [4]: 99%
- remaining binding at 1 µM [5]: 100%
- remaining binding at 1 µM [6]: 100%
- remaining binding at 1 µM [7]: 100%
- remaining binding at 1 µM [8]: 100%
- remaining binding at 1 µM [9]: 100%
- remaining binding at 1 µM [10]: 100%
- remaining binding at 1 µM [11]: 100%
- remaining binding at 1 µM [12]: 100%
- remaining binding at 1 µM [13]: 100%
- remaining binding at 1 µM [14]: 100%
- remaining binding at 1 µM [15]: 100%

Structure (SMILES): O=C(O)c1ccc(-c2coc3ncc(-c4ccccc4)cc23)cc1Cl [SGC-CAMKK2-1N (UNC-YL-83)]
- remaining binding at 1 µM [16]: 42%
- remaining binding at 1 µM [17]: 69%
- remaining binding at 1 µM [18]: 69%
- remaining binding at 1 µM [19]: 74%
- remaining binding at 1 µM [20]: 76%
- remaining binding at 1 µM [21]: 76%
- remaining binding at 1 µM [22]: 81%
- remaining binding at 1 µM [23]: 82%
- remaining binding at 1 µM [24]: 83%
- remaining binding at 1 µM [25]: 85%
- remaining binding at 1 µM [26]: 86%
- remaining binding at 1 µM [27]: 87%
- remaining binding at 1 µM [28]: 88%
- remaining binding at 1 µM [29]: 90%
- remaining binding at 1 µM [30]: 100%
- remaining binding at 1 µM [31]: 100%
- remaining binding at 1 µM [32]: 100%
